In patent US20130023550A1, “PHARMACEUTICAL COMPOSITIONS AND METHODS OF MAKING SAME” (GLAXO WELLCOME MANUFACTURING PTE, LTD, priority 2010, published 2013):
≈ marks a conversion by molar mass, not a printed value. Read-outs that look alike come from different tables or passages of the source.

Assays:
Assay type in all cases: physicochemical
[1] = Binding constant Kb by fluorescence titration
From the text: The binding constant between a drug substance and complexing agent can be determined using spectroscopic techniques as outlined by Connors and references therein (Kenneth A. Connors: “Binding Constants”, Wiley-Interscience; 1. edition (April 1987)).
The simplified equilibrium for complexation between pazopanib (034 in Equation 1 shown below) drug substance and13-cyclodextrin sulfobutylether (e.g., Captisol® from Cydex Pharmaceuticals, Inc., Lenexa, Kans.) has been shown as Equation 1, where Kd is the dissociation constant and Kb is the binding constant, 034(s) is solid precipitate for pazopanib, 034(aq) is the aqueous concentration of unbound pazopanib (free state without complexation), Captisol(aq) is the difference between the initial Captisol concentration and the concentration of Captisol in the complexed state with drug substance and pazopanib. […] is the concentration of the complex between pazopanib and 034·Captisol (complexed state).
A titration experiment is performed using pazopanib (approximately 0.05 mg/ml, 10^-4M) solution by varying the concentration of β-cyclodextrin sulfobutylether solution and measuring the fluorescence intensity (excitation at 342 nm, emission at 375 nm) of the resulting solutions. Initial Captisol concentration are chosen to describe the entire titration curve appropriately and to prevent nucleation and precipitation of pazopanib in the solution. […]
The measured Fluorescence intensity is directly related to the concentration of the complexed state 034·Captisol(aq) since uncomplexed pazopanib 034(aq) and Captisol Captisol(aq) have negligible fluorescence yield. The measured fluorescence intensities are fitted using a non-linear simplex fitting routine to determine the value of the binding constant Kb. The Fluorescence intensities are plotted as a function of β-cyclodextrin sulfobutylether concentration according to Benesi and Hildebrandt to determine the binding stoichiometry. […]
Varian Cary Eclipse Fluorescence spectrometer (SN: EL05043801) with a lcm cuvette and orthogonal detection geometry or equivalent. […]

[2] = Calculation of cyclodextrin utility number UCD; conditions: for K: conservative value used for UCD calculations
From the text: The cyclodextrin utility number, UCD, is a dimensionless number used to assess the feasibility of using cyclodextrin in dosage forms. UCD is a lumped parameter consisting of the dose of the drug, the workable amount of CD, the binding constant, and the drug solubility in the absence of CDs. UCD can be used to predict the solubility of ionizable drugs showing a synergistic increase in solubility due to ionization and complexation. See, Rao, V. M., Stella, V. J., J Pharm Sci, 92, 5 927, May 2003. UCD is calculated using the following equation:
UCD=(KSo/1+KSo)(MCD/MD)(MWD/MWCD)
where, mD is dose of drug; mCD is dose of cyclodextrin; MWD is molecular weight drug; MWCD is molecular weight cyclodextrin; and Ko is binding constant.
UCD=(KSo/1+KSo)(mCD/mD)(MWD/MWCD)
Binding constant, K, as described in Example 4 above.
Solubility, So, as described in Example 5 above. from Rao, V. M., Stella, V. J., J Pharm Sci, 92, 5 927, May 2003.

[3] = Solubility of pazopanib as a function of pH in phosphate buffer; conditions: for solubility at 5 days: phosphate buffer, 25 °C, thermodynamic from solid
Description: • 1) Prep 25 mM phosphate buffer (using monobasic Sodium Phosphate, monohydrate), adjust the buffer solution to different target pH using 1N NaOH/HCl. • 2) Add excessive pazopanib free base to the above solutions (˜20 mg free base per 10 mL buffer solution), vortex the solutions, and mix well. […] Equilibrate the solutions for 5 days with agitation. • 4) After 5 days, measure the pH of the solubility solution immediately, and record the pH, and filter the solution into a test tube using a 0.22um PVDF filter. • 5) Dilute the solution by 1:1 (v/v) with 50:50:0.1 water:acetonitrile:TFA (v/v/v) diluent, and mix well. • 6) The solubility of the solutions is analyzed by HPLC at the detection wavelength of 268 nm.
Mobile Phase A: 100:0.1 (v/v) Water:TFA Mobile Phase B: 100:0.1 (v/v) Acetonitrile:TFA Column: Phenomenex Develosil RPAqueous-3, C-30, 3 um, 150 mm×4.6 mm Column temperature: 35° C. Flow rate: Isocratic at 1.0 mL/min, A/B=60/40 Detector wavelength: 268 nm Injection volume: 10 μ L Total run time: 4 minutes

[4] = Osmolality contribution of Captisol

Compound: Cc1ccc(Nc2nccc(N(C)c3ccc4c(C)n(C)nc4c3)n2)cc1S(N)(=O)=O [pazopanib]
- binding constant, Kb ([1]; pH of 4, temperature of 40° C.): 9763 mol⁻¹
- binding constant, Kb ([1]; pH of 5, temperature of 25° C.): 9130 mol⁻¹
- binding constant of pazopanib, K ([1]; with modified cyclodextrin such as Captisol): approximately 10,000
- (KSo)/(1 + KSo) ([2]; pH 3.5): 0.314
- K ([2]; pH 3.5): 10000 L/mol
- (KSo)/(1 + KSo) ([2]; pH 4.0): 0.023
- K ([2]; pH 4.0): 10000 L/mol
- (KSo)/(1 + KSo) ([2]; pH 4.25): 0.012
- K ([2]; pH 4.25): 10000 L/mol
- (KSo)/(1 + KSo) ([2]; pH 4.5): 0.0006
- K ([2]; pH 4.5): 10000 L/mol
- (KSo)/(1 + KSo) ([2]; pH 5.0): 0.0001
- K ([2]; pH 5.0): 10000 L/mol
- So ([3]; pH 3.5): 4.57e-05 mol/L
- solubility in phosphate buffer ([3]; pH 3.5, 25° C.): ~20 µg/mL (≈ 45.7 µM)
- So ([3]; pH 4.0): 2.38e-06 mol/L
- solubility in phosphate buffer ([3]; pH 4.0, 25° C.): ~1.043 µg/mL (≈ 2.38 µM)
- solubility in phosphate buffer (molar value) ([3]; pH 4.0, 25° C.): ~2.38×10^−6
- solubility in phosphate buffer ([3]; pH 4.25, 25° C.): ~0.534 µg/mL (≈ 1.22 µM)
- solubility, So ([3]; pH 4.25, 25° C.): ~1.22 µM (≈ 0.534 µg/mL)
- solubility in phosphate buffer ([3]; pH 4.5, 25° C.): ~0.025 µg/mL (≈ 0.0571 µM)
- solubility, So ([3]; pH 4.5, 25° C.): ~0.0571 µM (≈ 0.025 µg/mL)
- solubility, So ([3]; pH 5.0, 25° C.): 0.0137 µM (≈ 0.00599 µg/mL)
- solubility at 5 days ([3]; pH 3.5, aqueous buffer, pH 3.5, 25° C., read-out: solubility in phosphate buffer): 20 µg/mL
- solubility at 5 days ([3]; pH 3.5, aqueous buffer, pH 3.5, 25° C., read-out: solubility in phosphate buffer (molar value)): 45.7 µM
- solubility at 5 days ([3]; pH 4, aqueous buffer, pH 4.0, 25° C., read-out: solubility in phosphate buffer): 1.04 µg/mL
- solubility at 5 days ([3]; pH 4, aqueous buffer, pH 4.0, 25° C., read-out: solubility in phosphate buffer (molar value)): 2.38 µM
- solubility at 5 days ([3]; pH 4.25, aqueous buffer, pH 4.25, 25° C., read-out: solubility in phosphate buffer): 0.534 µg/mL
- solubility at 5 days ([3]; pH 4.25, aqueous buffer, pH 4.25, 25° C., read-out: solubility, So): 1.22 µM
- solubility at 5 days ([3]; pH 4.5, aqueous buffer, pH 4.5, 25° C., read-out: solubility in phosphate buffer): 0.025 µg/mL
- solubility at 5 days ([3]; pH 4.5, aqueous buffer, pH 4.5, 25° C., read-out: solubility, So): 0.0571 µM

Compound: β-cyclodextrin sulfobutylether [Captisol]
- Osmolality (mOsm) ([4]; Captisol 2 % (w/v)): 20 mOsm
- Osmolality (mOsm) ([4]; Captisol 3 % (w/v)): 50 mOsm
- Osmolality (mOsm) ([4]; Captisol 4 % (w/v)): 80 mOsm
- Osmolality (mOsm) ([4]; Captisol 5 % (w/v)): 110 mOsm
- Osmolality (mOsm) ([4]; Captisol 6 % (w/v)): 140 mOsm
- Osmolality (mOsm) ([4]; Captisol 7 % (w/v)): 170 mOsm
- Osmolality (mOsm) ([4]; Captisol 8 % (w/v)): 201 mOsm
- Osmolality (mOsm) ([4]; Captisol 9 % (w/v)): 231 mOsm
- Osmolality (mOsm) ([4]; Captisol 10 % (w/v)): 261 mOsm
- Osmolality (mOsm) ([4]; Captisol 11 % (w/v)): 291 mOsm
- Osmolality (mOsm) ([4]; Captisol 12 % (w/v)): 321 mOsm
- Osmolality (mOsm) ([4]; Captisol 13 % (w/v)): 351 mOsm
